Here are results for 5 substances from US11236092B2, “Spiro-condensed pyrrolidine derivatives as deubiquitylating enzymes (DUB) inhibitors” (MISSION THERAPEUTICS LIMITED, priority 2016, dated 2022).

Cezanne 1, sequence (Q6GQQ9 whole entry): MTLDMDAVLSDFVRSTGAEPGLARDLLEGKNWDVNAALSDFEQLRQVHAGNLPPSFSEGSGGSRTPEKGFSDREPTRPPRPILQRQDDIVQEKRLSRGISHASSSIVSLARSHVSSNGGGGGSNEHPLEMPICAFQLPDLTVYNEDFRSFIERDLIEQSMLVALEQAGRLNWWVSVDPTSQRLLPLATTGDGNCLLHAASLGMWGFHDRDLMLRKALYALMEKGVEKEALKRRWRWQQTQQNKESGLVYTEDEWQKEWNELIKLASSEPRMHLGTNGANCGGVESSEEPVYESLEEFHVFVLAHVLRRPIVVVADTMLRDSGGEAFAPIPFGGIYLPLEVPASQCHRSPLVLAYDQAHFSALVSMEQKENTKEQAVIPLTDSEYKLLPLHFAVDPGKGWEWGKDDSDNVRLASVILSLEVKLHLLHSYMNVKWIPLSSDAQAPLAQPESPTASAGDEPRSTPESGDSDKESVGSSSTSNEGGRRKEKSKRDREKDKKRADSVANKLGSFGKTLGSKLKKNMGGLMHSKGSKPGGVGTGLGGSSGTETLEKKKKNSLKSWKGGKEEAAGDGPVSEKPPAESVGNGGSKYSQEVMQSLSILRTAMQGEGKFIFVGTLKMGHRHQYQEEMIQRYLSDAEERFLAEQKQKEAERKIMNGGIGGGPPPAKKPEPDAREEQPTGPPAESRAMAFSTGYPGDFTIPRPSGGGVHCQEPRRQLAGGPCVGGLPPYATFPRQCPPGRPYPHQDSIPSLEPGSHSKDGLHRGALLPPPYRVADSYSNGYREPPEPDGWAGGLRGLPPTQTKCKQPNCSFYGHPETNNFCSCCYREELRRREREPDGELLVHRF

The target of this test is Cezanne 1 (Homo sapiens (Human), UniProt Q6GQQ9). The experiment in a line: Cezanne 1 biochemical IC50 assay (fluorescence polarisation). The settings on record: FLAG-Cezanne 1; enzyme and compound incubated 30 min at room temp; 50 nM TAMRA labelled peptide linked to ubiquitin as substrate; read after 2 hr; read-out: IC50 range. The protocol:
Expression and Purification of Cezanne 1
The Cezanne 1 construct was PCR amplified and cloned into a pFLAG-CMV-6c vector (Sigma-Aldrich) with an N-terminal FLAG tag. HEK293T cells were transfected with FLAG-Cezanne 1 using TransIT-LT1 transfection reagent (Mirus) according to the manufacturer's instructions. Cells were harvested 48 hours after transfection. […] The resin was washed two times with low salt buffer and one time with high salt buffer (20 mM Tris, pH 7.5, 500 mM NaCl, 0.5 mM EDTA, 5 mM beta-mercaptoethanol, protease inhibitors (complete mini, Roche) and phosphatase inhibitors (PhosSTOP mini, Roche). To elute the bound Cezanne 1, elution buffer (10 mM Tris, pH 7.5, 150 mM NaCl, 0.5 mM EDTA, 10% glycerol, 0.5% NP40, 5 mM beta-mercaptoethanol, 0.15 mg/ml 3X FLAG peptide (Sigma-Aldrich)) was added to the resin and incubated at 4° C. for 2.5 hours while rotating. The resin was centrifuged at 4000 rpm for 30 seconds, and the supernatant containing purified FLAG-Cezanne 1 was removed and stored at −80° C.
Cezanne 1 Biochemical IC50 Assay
Dilution plates were prepared at 21 times the final concentration (2100 μM for a final concentration of 100 μM) in 50% DMSO in a 96-well polypropylene V-bottom plate (Greiner #651201). A typical 8-point dilution series to be 100, 30, 10, 3, 1, 0.3, 0.1, 0.03 μM final. Reactions were performed in duplicate in black 384 well plates (small volume, Greiner 784076) in a final reaction volume of 21 μl. Either 1 μl of 50% DMSO or diluted compound was added to the plate. Cezanne 1 was diluted in reaction buffer (40 mM Tris, pH 7.5, 0.005% Tween 20, 0.5 mg/ml BSA, 5 mM—beta-mercaptoethanol) to the equivalent of 0.005 μl/well and 10 μl of diluted Cezanne 1 was added to the compound. Enzyme and compound were incubated for 30 min at room temp. Reactions were initiated by the addition of 50 nM of TAMRA labelled peptide linked to ubiquitin via an iso-peptide bond as fluorescence polarisation substrate. Reactions were read immediately after addition of substrate and following a 2 hr incubation at room temperature. Readings were performed on a Pherastar Plus (BMG Labtech). λ Excitation 540 nm; λ Emission 590 nm.
As to “2′-Oxo-7′-(4-phenoxyphenyl)-l′,4′-dihydro-2′H-spiro┌pyrrolidine-3,3′-quinoline┐-1-carbonitrile [Example 11]”, the IC50 fell in the range of 1000 to 10000 nM.
The figure for “3-(1-Cyano-2′-oxo-1′4′-dihydro-2′H-spiro┌pyrrolidine-3,3′-quinolin┐-7′-yl)-N,N-dimethylbenzamide [Example 30]” is 100 to 1000 nM; for “7′-(1-Methyl-1H-pyrazol-5-yl)-2′-oxo-1′,4′-dihydro-2′H-spiro┌pyrrolidine-3,3′-quinoline┐-1-carbonitrile [Example 10]” it is 1000 to 10000 nM.
Regarding “7′-(2-Methylpyridin-4-yl)-2′-oxo-1′,4′-dihydro-2′H-spiro┌pyrrolidine-3,3′-quinoline┐-1-carbonitrile [Example 34]”, the IC50 lay within 1000 to 10000 nM.
The figure for “7′-(3-Cyanophenyl)-2′-oxo-l′,4′-dihydro-2′H-spiro┌pyrrolidine-3,3′-quinoline┐-1-carbonitrile [Example 9]” is 1000 to 10000 nM.
